Experimental data reported in ChEMBL document CHEMBL3272054, “Beta-adrenoceptor studies. 2. Effects of alkyl substitution on beta-adrenoceptor blocking, antiarrhythmic, and local anesthetic activities of 1,1'-(o-phenylenedioxy)bis(3-isopropylamino-2-propanol)” (J Med Chem, 1977).
Activity calls are given as the source filed them. No cut-off for these calls is given here.

Columns and labels:
Right cardiac atrium [1] = test: Antiarrhythmic activity in guinea pig right atrium assessed as inhibition of ouabain-induced arrhythmia; format: functional, Cavia porcellus
[2] = Local anesthetic activity in desheathed frog sciatic nerve; format: functional, tissue-based, Anura
[3] = 1-octanol-phosphate buffer apparent partition coefficient, log P of the compound at pH 7.4; format: physicochemical
[4] = Apparent dissociation constant, pKa of the compound; format: physicochemical
Right cardiac atrium [5] = test: Negative inotropic activity in guinea pig right atrium assessed as contractile force at MEC after 30 mins; format: functional, tissue-based; conditions: Cavia porcellus
Right cardiac atrium [6] = test: Negative chronotropic activity in guinea pig right atrium assessed as atrial rate at MEC after 30 mins; format: functional, tissue-based; conditions: Cavia porcellus
[7] = target: Beta-1 adrenergic receptor (Cavia porcellus, UniProt H0W3H1); test: Antagonist activity at […] adrenergic receptor in guinea pig right atrium assessed as inhibition of isoprenaline-induced effect; design: species or system Cardiac atrium
Sequence of Beta-1 adrenergic receptor (H0W3H1 1-470): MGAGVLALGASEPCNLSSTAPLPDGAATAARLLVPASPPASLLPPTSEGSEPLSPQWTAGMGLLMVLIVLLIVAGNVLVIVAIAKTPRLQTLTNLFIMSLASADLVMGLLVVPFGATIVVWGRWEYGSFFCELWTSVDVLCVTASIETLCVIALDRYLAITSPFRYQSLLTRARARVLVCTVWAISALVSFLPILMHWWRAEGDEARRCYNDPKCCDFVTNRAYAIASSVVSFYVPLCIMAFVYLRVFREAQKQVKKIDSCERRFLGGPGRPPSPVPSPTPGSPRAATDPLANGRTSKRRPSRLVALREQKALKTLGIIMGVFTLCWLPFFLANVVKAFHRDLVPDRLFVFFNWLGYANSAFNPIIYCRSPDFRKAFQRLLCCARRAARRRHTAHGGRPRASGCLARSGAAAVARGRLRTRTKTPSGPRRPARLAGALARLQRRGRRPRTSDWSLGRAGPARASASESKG

[8] = target: Beta-2 adrenergic receptor (Cavia porcellus, UniProt Q8K4Z4); test: Antagonist activity at beta-2 adrenergic receptor in guinea pig tracheal strip assessed as inhibition of isoprenaline-induced effect; conditions: read-out: pA2 (converted)
Sequence of Beta-2 adrenergic receptor (Q8K4Z4 whole entry): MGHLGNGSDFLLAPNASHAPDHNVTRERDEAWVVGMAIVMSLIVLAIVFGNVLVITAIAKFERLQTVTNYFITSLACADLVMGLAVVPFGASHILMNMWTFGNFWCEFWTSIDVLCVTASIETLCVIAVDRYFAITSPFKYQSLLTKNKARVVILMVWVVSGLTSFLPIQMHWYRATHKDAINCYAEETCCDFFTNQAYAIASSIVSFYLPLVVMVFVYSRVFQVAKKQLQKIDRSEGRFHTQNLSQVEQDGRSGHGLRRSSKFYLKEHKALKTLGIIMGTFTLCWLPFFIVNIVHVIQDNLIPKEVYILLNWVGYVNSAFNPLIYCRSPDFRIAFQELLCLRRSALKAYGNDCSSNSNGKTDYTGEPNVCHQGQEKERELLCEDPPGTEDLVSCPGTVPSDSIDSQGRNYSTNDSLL

Row | SMILES | -logMIC (Right cardiac atrium [1]) | pEC50 [2] | logD [3] | pKa [4] | Activity (Right cardiac atrium [5]) | Activity (Right cardiac atrium [6]) | pA2 [7] | Kb [8] [µM]
1 | CC(C)NCC(O)COc1ccc(C(C)C)cc1OCC(O)CNC(C)C.Cl (stereo not drawn) | 4.7 | 2.07 | -0.833 | 9.3 | Active | Active |  | 
2 | Cc1cccc(OCC(O)CNC(C)C)c1OCC(O)CNC(C)C.Cl (stereo not drawn) | 4.7 | 1.8 | -1.17 | 9.23 | Active | Active |  | 
3 | CC(C)NCC(O)COc1cc2c(cc1OCC(O)CNC(C)C)CCCC2 (stereo not drawn) | 5 | 2.02 | -0.726 | 9.17 | Active | Active | 5.83 | 0.129
4 | CC(C)NCC(O)COc1cc2ccccc2cc1OCC(O)CNC(C)C.Cl (stereo not drawn) | 5.3 | 2.2 | -0.81 | 9.18 | Active | Active | 5.45 | 0.158
5 | CC(C)NCC(O)COc1cccc(C(C)C)c1OCC(O)CNC(C)C.Cl (stereo not drawn) | 5 | 2 | -0.747 | 9.24 | Active | Active |  | 
6 | CC(C)NCC(O)COc1cccc2ccccc12 (stereo not drawn) |  |  |  |  | Active | Active |  | 
7 | CC(C)NCC(O)COc1ccccc1OCC(O)CNC(C)C (stereo not drawn) | 3.7 | 1.29 | -1.19 | 9.22 | Active | Active |  | 
8 | Cc1ccc(OCC(O)CNC(C)C)c(OCC(O)CNC(C)C)c1.Cl (stereo not drawn) | 4.3 | 1.69 | -1.16 | 9.24 | Active | Active |  | 
